“And” between values parts separate entries of the source, which are not always exact repeats. Equal values may be shown once.
How the values were obtained:
A549 cells = assay: Cell growth inhibition assay, A549; assay type: cell-based; settings: Homo sapiens, 72 h, concentration giving T/C 50%, day 4, read-out: ED50 (the source's name)
Protocol: (§1) 2×10^4 cells per well charged with GIT medium for KB cells (human epidermoid carcinoma cells), A549 cells (human lung carcinoma cells) and HSC-1 cells (human skin squamous carcinoma cells), and 4×10^4 cells for B16-BL6 cells (mouse melanoma cells) and 5×10^3 cells for Neuro-2a cells were inoculated. On day 1 (next day), various concentrations of the compound of Example 108 were added. On day 4, cells were suspended in a solution of trypsin-EDTA and the number of cells was counted. The ratio of cell number in treated culture to that in control culture was estimated as T/C (%) value. The concentration of the compound of Example 108 giving a value of T/C, 50% was defined as ED50.

Neuro-2a cells [1] = assay: Effect on morphological differentiation of neuroblastoma Neuro-2a; assay type: cell-based, mouse; settings: three days, untreated 22
Protocol: Assay of the effects on inducing differentiation of HL-60 cells (human promyelocytic leukemia cells) and Neuro-2a cells (mouse neuroblastoma cells):
For Neuor-2a cells, 1×10^4 cells were inoculated into GIT medium (Daigo-eiyo Chemicals, Japan) and one day later various amounts of the compound of Example 108 were added. The cells were incubated for following three days at 37° C. in a 5% CO2 incubator.
The percentage of cells that were morphologically similar to neurocyte with extended neurite was determined by microscopical examination of cells more than 200.

B16-BL6 cells = assay: Cell growth inhibition assay, B16-BL6; assay type: cell-based; settings: Mus musculus, 72 h, concentration giving T/C 50%, day 4, read-out: ED50 (the source's name)
Protocol: as §1

KB cells = assay: Cell growth inhibition assay, KB; assay type: cell-based; settings: Homo sapiens, 72 h, concentration giving T/C 50%, day 4, read-out: ED50 (the source's name)
Protocol: as §1

PAF-induced hypotension = assay: Inhibitory activity against PAF-induced hypotension in rats; assay type: in vivo, rat (male Spraque-Dawley); settings: PAF 0.3 μg/kg i.v.
Protocol: Inhibitory activity against PAF-induced hypotension in rats
Male Spraque-Dawley rats, with a body weight of about 400 g, were used under pentobarbital sodium (50 mg/kg, intravenous administration) anesthesia. A cannula was inserted into the femoral artery and secured in position for measurement of blood pressure and another cannula into the femoral vein for administration of a solution of the drug. The blood pressure was measured via a pressure transducer and recorded on a polygraph. First, 0.3 μg/kg of PAF was administered intravenously and the hypotensive response was recorded.
The inhibitory activity against PAF-induced hypotension was estimated from the rate of PAF-induced hypotensive response (Δ mmHg) after the drug administration to hypotensive response (Δ mmHg) by PAF before the drug administration.

Neuro-2a cells [2] = assay: Cell growth inhibition assay, Neuro-2a; assay type: cell-based; settings: Mus musculus, N2a, 72 h, concentration giving T/C 50%, day 4, read-out: ED50 (the source's name)
Protocol: as §1

[3] = system: endotoxin-induced hypotension; assay: Anti-endotoxin shock activity in rats; assay type: in vivo, rat (male Spraque-Dawley); settings: endotoxin 15 mg/kg i.v., one minute after
Protocol: Anti-endotoxin shock activity in rats
Male Spraque-Dawley rats weighting about 400 g were used under pentobarbital sodium (50 mg/kg, i.v.) anesthesia. A cannula was inserted into the femoral artery and secured in position for measurement of blood pressure and another cannula into femoral vein for administration of a solution of the drug. The blood pressure was measured via a pressure transducer and recorded on a polygraph. First, a suspension of endotoxin (15 mg/kg) [Lipopolysaccharide W.E. coli 0111: B4, Wako Pure Chemical] in physiological saline was administered intravenously and the maximum hypotensive response (Δ mmHg) occurring 3 to 5 minutes after administration was recorded. Simultaneously, the compound of Example 108 was dissolved in physiological saline and administered intravenously in a dose of 1 to 100 μg/kg. The restortion rate against endotoxin-induced hypotension one minute after the administration was calculated. The presence of preventive activity against endotoxin shock was judged from the strength of the restoration rate.

[4] = system: rabbit platelet aggregation by PAF; assay: Inhibitory activity on rabbit platelet aggregation by PAF; assay type: cell-based; settings: Oryctolagus cuniculus, PAF 1×10^-8 M, read-out: rate of inhibition of rabbit platelet aggregation by PAF
HSC-1 cells = assay: Cell growth inhibition assay, HSC-1; assay type: cell-based; settings: Homo sapiens, 72 h, concentration giving T/C 50%, day 4, read-out: ED50 (the source's name)
Protocol: as §1

HL-60 cells = assay: Effect on inducing differentiation of HL-60 cells (NBT-positive cells); assay type: cell-based, human; settings: 6 days
Protocol: Assay of the effects on inducing differentiation of HL-60 cells (human promyelocytic leukemia cells) and Neuro-2a cells (mouse neuroblastoma cells): RPMI-1640 medium (Flow Laboratories, Inc.) supplemented with 20% fetal calf serum (M.A. […] The culture was incubated at 37° C. in a 5% CO2 incubator for 6 days. […] The reaction was allowed to proceed at 37° C. for 20 minutes. The reaction was stopped by cooling with ice, and the cells were washed by means of centrifugation, followed by collecting 3-5×10^4 cells and by subjecting to centrifugation using Cytospin centrifuge to prepare a cell smear, which was fixed with methanol and stained with Kernechtrot solution. On each cell smear, the percentage of NBT-positive cells relative to live cells, […] by examination of a minimum of 200 cells, was expressed as the differentiation extent.

SMILES: CCCCCCCCCCCCCCCCCCNC(=O)OCC(COC(=O)N(Cc1cccc[n+]1CC)C(C)=O)OC (stereo not drawn) [Example 108, 1-Ethyl-2-[N-acetyl-N-(3-octadecylcarbamoyloxy-2-methoxypropyloxy)carbonyl]aminomethylpyridinium chloride]
- IC50 (A549 cells): 0.63 µg/mL
- % of cells with neurite (Neuro-2a cells [1]; 2.5 μg/ml): 26%
- % of cells with neurite (Neuro-2a cells [1]; 5 μg/ml): 33%
- % of cells with neurite (Neuro-2a cells [1]; 10 μg/ml): 35%
- % of cells with neurite (Neuro-2a cells [1]; 15 μg/ml): 44%
- % of cells with neurite (Neuro-2a cells [1]; 20 μg/ml): 74%
- IC50 (B16-BL6 cells): 2.5 µg/mL
- IC50 (KB cells): 0.16 µg/mL
- Restoration rate (PAF-induced hypotension; 0.1 mg/kg i.v., after 5 min): 100%
- Restoration rate (PAF-induced hypotension; 0.1 mg/kg i.v., after 60 min): 55%
- Restoration rate (PAF-induced hypotension; 1 mg/kg i.v., after 5 min): 100%
- Restoration rate (PAF-induced hypotension; 1 mg/kg i.v., after 60 min): 100%
- IC50 (Neuro-2a cells [2]): 5 µg/mL
- Restoration rate against endotoxin-induced hypotension ([3]; 0.01 mg/kg i.v., 2 rats, single values): 100% and 59%
- Restoration rate against endotoxin-induced hypotension ([3]; 0.1 mg/kg i.v., 3 rats, mean ± standard error): 97 ± 1%
- inhibition at 30 µM ([4]; test drug 3 × 10^-5 M): 100%
- inhibition at 3 µM ([4]; test drug 3 × 10^-6 M): 100%
- inhibition at 0.3 µM ([4]; test drug 3 × 10^-7 M): 100%
- IC50 (HSC-1 cells): 0.63 µg/mL
- Maximum differentiation extent: Optimal conc. (HL-60 cells): 0.63 µg/mL
- Emax (HL-60 cells; Homo sapiens, HL-60, 144 h, at optimal conc., NBT-positive relative to live cells, read-out: Maximum differentiation extent: Differentiation): 83%
